In ChEMBL document CHEMBL1201862, “PubChem BioAssay data set” (2004):
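Following 48 hours of exposure in 96-well plates, responses at five concentrations were used to interpolate endpoints linearly. GI50 is the concentration that inhibits growth by half.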 The source made the active and inactive calls. Cut-off read from the data, not from the text of the source: active = GI50 up to about 1.1 µM and inactive = higher.

Experiments:
Assay in all cases: growth of human tumour cells (NCI), 48 h
786-0 = test system: 786-0
A498 = test system: A498
A549 = test system: A549
ACHN = test system: ACHN
BT-549 = test system: BT-549
CAKI-1 = test system: CAKI-1
DU-145 = test system: DU-145
EKVX = test system: EKVX
HCC 2998 = test system: HCC 2998
HCT-116 = test system: HCT-116
HCT-15 = test system: HCT-15
HL-60 = test system: HL-60
HOP-62 = test system: HOP-62
HOP-92 = test system: HOP-92
HT-29 = test system: HT-29
Hs-578T = test system: Hs-578T
IGROV-1 = test system: IGROV-1
K562 = test system: K562
KM12 = test system: KM12
LOX IMVI = test system: LOX IMVI
M14 = test system: M14
MCF7 = test system: MCF7
MDA-MB-231 = test system: MDA-MB-231
MDA-MB-435 = test system: MDA-MB-435
MDA-N = test system: MDA-N
MOLT-4 = test system: MOLT-4
NCI-H226 = test system: NCI-H226
NCI-H23 = test system: NCI-H23
NCI-H460 = test system: NCI-H460
NCI-H522 = test system: NCI-H522
NCI/ADR-RES = test system: NCI/ADR-RES
OVCAR-3 = test system: OVCAR-3
OVCAR-4 = test system: OVCAR-4
OVCAR-5 = test system: OVCAR-5
OVCAR-8 = test system: OVCAR-8
PC-3 = test system: PC-3
RPMI-8226 = test system: RPMI-8226
RXF 393 = test system: RXF 393
SF-268 = test system: SF-268
SF-295 = test system: SF-295
SF-539 = test system: SF-539
SK-MEL-28 = test system: SK-MEL-28
SK-MEL-2 = test system: SK-MEL-2
SK-MEL-5 = test system: SK-MEL-5
SNB-75 = test system: SNB-75
SR = test system: SR
SW-620 = test system: SW-620
T47D = test system: T47D
TK-10 = test system: TK-10
U-251 = test system: U-251
UACC-257 = test system: UACC-257
UO-31 = test system: UO-31
COLO 205 = test system: COLO 205
SK-OV-3 = test system: SK-OV-3
SN12C = test system: SN12C
SNB-19 = test system: SNB-19
UACC-62 = test system: UACC-62

C=CCC1(O)c2cccc(O)c2C(=O)c2cccc(O)c21 (centres undefined)
GI50 (786-0): 19.3 µM (inactive)
GI50 (A498): 13.3 µM (inactive)
GI50 (A549): 15.8 µM (inactive)
GI50 (ACHN): 22.8 µM (inactive)
GI50 (BT-549): 16.8 µM (inactive)
GI50 (CAKI-1): 21.7 µM (inactive)
GI50 (DU-145): 17.6 µM (inactive)
GI50 (EKVX): 17.4 µM (inactive)
GI50 (HCC 2998): 11 µM (inactive)
GI50 (HCT-116): 14.4 µM (inactive)
GI50 (HCT-15): 12.2 µM
GI50 (HL-60): 11.7 µM (inactive)
GI50 (HOP-62): 21.4 µM (inactive)
GI50 (HOP-92): 17.5 µM (inactive)
GI50 (HT-29): 22.1 µM (inactive)
GI50 (Hs-578T): 14.9 µM (inactive)
GI50 (IGROV-1): 23.6 µM (inactive)
GI50 (K562): 6.71 µM (inactive)
GI50 (KM12): 17.3 µM (inactive)
GI50 (LOX IMVI): 16.3 µM (inactive)
GI50 (M14): 16.2 µM (inactive)
GI50 (MCF7): 19.6 µM (inactive)
GI50 (MDA-MB-231): 21.1 µM (inactive)
GI50 (MDA-MB-435): 9.38 µM (inactive)
GI50 (MDA-N): 8.22 µM (inactive)
GI50 (MOLT-4): 11.3 µM (inactive)
GI50 (NCI-H226): 22.3 µM (inactive)
GI50 (NCI-H23): 8.09 µM (inactive)
GI50 (NCI-H460): 13.9 µM (inactive)
GI50 (NCI-H522): 9.86 µM (inactive)
GI50 (NCI/ADR-RES): 11.2 µM (inactive)
GI50 (OVCAR-3): 12.3 µM (inactive)
GI50 (OVCAR-4): 29.2 µM (inactive)
GI50 (OVCAR-5): 22.5 µM (inactive)
GI50 (OVCAR-8): 25.8 µM (inactive)
GI50 (PC-3): 16.9 µM (inactive)
GI50 (RPMI-8226): 11.5 µM (inactive)
GI50 (RXF 393): 15.7 µM (inactive)
GI50 (SF-268): 23.3 µM (inactive)
GI50 (SF-295): 9.35 µM (inactive)
GI50 (SF-539): 31.8 µM (inactive)
GI50 (SK-MEL-28): 20.5 µM (inactive)
GI50 (SK-MEL-2): 12 µM (inactive)
GI50 (SK-MEL-5): 10.7 µM (inactive)
GI50 (SNB-75): 13.2 µM (inactive)
GI50 (SR): 6.41 µM (inactive)
GI50 (SW-620): 25.2 µM (inactive)
GI50 (T47D): 4.12 µM (inactive)
GI50 (TK-10): 23.5 µM (inactive)
GI50 (U-251): 11.9 µM (inactive)
GI50 (UACC-257): 13 µM (inactive)
GI50 (UO-31): 15.4 µM (inactive)

CC(C)(C)[Si](C)(C)OC[C@H](/C=C\CCCC(=O)O)NC1(c2ccccc2)c2ccccc2-c2ccccc21
GI50 (786-0): 14 µM (inactive)
GI50 (A498): 17.5 µM (inactive)
GI50 (A549): 10.7 µM (inactive)
GI50 (ACHN): 11.8 µM (inactive)
GI50 (BT-549): 24.5 µM (inactive)
GI50 (CAKI-1): 11.2 µM (inactive)
GI50 (COLO 205): 13.6 µM (inactive)
GI50 (DU-145): 25.9 µM (inactive)
GI50 (EKVX): 12.2 µM (inactive)
GI50 (HCC 2998): 14.5 µM (inactive)
GI50 (HCT-116): 7.29 µM (inactive)
GI50 (HCT-15): 11.2 µM
GI50 (HL-60): 8.53 µM (inactive)
GI50 (HOP-62): 15.2 µM (inactive)
GI50 (HOP-92): 11.1 µM (inactive)
GI50 (HT-29): 13.2 µM (inactive)
GI50 (Hs-578T): 20 µM (inactive)
GI50 (IGROV-1): 16.7 µM (inactive)
GI50 (K562): 5.18 µM (inactive)
GI50 (KM12): 15.5 µM (inactive)
GI50 (LOX IMVI): 12.9 µM (inactive)
GI50 (M14): 16.8 µM (inactive)
GI50 (MCF7): 10.4 µM (inactive)
GI50 (MDA-MB-231): 14.3 µM (inactive)
GI50 (MDA-MB-435): 13.9 µM (inactive)
GI50 (MDA-N): 20.6 µM (inactive)
GI50 (MOLT-4): 5.52 µM (inactive)
GI50 (NCI-H226): 11.6 µM (inactive)
GI50 (NCI-H23): 14.7 µM (inactive)
GI50 (NCI-H460): 15.1 µM (inactive)
GI50 (NCI-H522): 18.7 µM (inactive)
GI50 (NCI/ADR-RES): 9.75 µM (inactive)
GI50 (OVCAR-3): 12.5 µM (inactive)
GI50 (OVCAR-4): 14.8 µM (inactive)
GI50 (OVCAR-5): 23.2 µM (inactive)
GI50 (OVCAR-8): 16.6 µM (inactive)
GI50 (PC-3): 6.52 µM (inactive)
GI50 (RPMI-8226): 4.17 µM (inactive)
GI50 (RXF 393): 10.2 µM (inactive)
GI50 (SF-268): 13.9 µM (inactive)
GI50 (SF-295): 16.4 µM (inactive)
GI50 (SF-539): 16.3 µM (inactive)
GI50 (SK-MEL-28): 16.7 µM (inactive)
GI50 (SK-MEL-2): 11.9 µM (inactive)
GI50 (SK-MEL-5): 11.2 µM (inactive)
GI50 (SK-OV-3): 20.4 µM (inactive)
GI50 (SN12C): 11.6 µM (inactive)
GI50 (SNB-19): 32.9 µM (inactive)
GI50 (SNB-75): 29.4 µM (inactive)
GI50 (SR): 4.65 µM (inactive)
GI50 (SW-620): 22.5 µM (inactive)
GI50 (T47D): 7.38 µM (inactive)
GI50 (TK-10): 24.3 µM (inactive)
GI50 (U-251): 14.4 µM (inactive)
GI50 (UACC-257): 10.2 µM (inactive)
GI50 (UACC-62): 12.6 µM (inactive)
GI50 (UO-31): 19.3 µM (inactive)
